Test results published in patent US20240199546A1, “INHIBITORS OF SOLUTE CARRIER FAMILY 6A MEMBER 19 (SLC6A19) AND METHODS OF USE THEREOF” (Maze Therapeutics, Inc., priority 2022, published 2024).

target: T1, human SLC6A19 and TMEM27 (Homo sapiens, UniProt Q695T7); assay: Radiolabelled (3H) leucine uptake in CHO cells with doxycycline-inducible expression of human SLC6A19 and TMEM27 (Example B-1); type: cell-based; conditions: CHO cells with doxycycline-inducible expression of human SLC6A19 and TMEM27, read-out: SLC6A19_Radioligand Uptake Assay IC50
T1 construct: expressed in transfected cells
T1 sequence (Q695T7 1-634): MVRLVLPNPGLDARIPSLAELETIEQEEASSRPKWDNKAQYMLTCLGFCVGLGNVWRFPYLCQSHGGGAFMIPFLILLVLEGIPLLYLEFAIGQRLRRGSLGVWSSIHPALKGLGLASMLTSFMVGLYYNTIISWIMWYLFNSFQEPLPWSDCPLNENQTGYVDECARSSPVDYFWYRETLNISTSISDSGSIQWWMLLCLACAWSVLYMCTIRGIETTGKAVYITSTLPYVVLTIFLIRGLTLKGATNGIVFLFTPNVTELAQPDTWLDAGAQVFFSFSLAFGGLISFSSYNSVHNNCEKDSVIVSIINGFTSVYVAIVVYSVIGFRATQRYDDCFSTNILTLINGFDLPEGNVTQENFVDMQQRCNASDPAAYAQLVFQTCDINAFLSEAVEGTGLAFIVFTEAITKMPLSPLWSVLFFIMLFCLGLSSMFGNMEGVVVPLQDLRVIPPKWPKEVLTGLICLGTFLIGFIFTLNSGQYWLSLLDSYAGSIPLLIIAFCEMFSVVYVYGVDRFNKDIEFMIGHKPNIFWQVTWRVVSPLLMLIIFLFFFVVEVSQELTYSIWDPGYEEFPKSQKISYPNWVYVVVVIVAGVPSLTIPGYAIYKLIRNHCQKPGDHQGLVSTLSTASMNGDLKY
T1 sequence (Q9HBJ8 15-222 partner): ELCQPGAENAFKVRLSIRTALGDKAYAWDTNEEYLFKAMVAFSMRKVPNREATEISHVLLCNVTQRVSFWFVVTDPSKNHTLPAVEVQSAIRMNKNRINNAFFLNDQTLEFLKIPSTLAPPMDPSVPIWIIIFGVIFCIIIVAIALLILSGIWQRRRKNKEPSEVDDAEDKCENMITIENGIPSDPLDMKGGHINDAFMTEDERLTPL
Method in brief: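 CHO cells were induced with doxycycline for 18 h at 37 °C, washed in HBSS, then exposed to compounds for 1 h: 8-point, 3-fold dilutions in duplicate, 0.5% DMSO final. Uptake measured by scintillation counting after 2 h shaking. Activity normalized with positive control as 0% and DMSO as 100%.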

Compound	IC50
O=C(NCc1cc2cc(Cl)c(OCc3cscn3)cc2[nH]1)N1CCC(O)C1 (racemic) [Compound 366, (R)-N-((5-chloro-6-(thiazol-4-ylmethoxy)-1H-indol-2-yl)methyl)-3-hydroxypyrrolidine-1-carboxamide and (S)-N-((5-chloro-6-(thiazol-4-ylmethoxy)-1H-indol-2-yl)methyl)-3-hydroxypyrrolidine-1-carboxamide]	1530 nM
O=C(NCc1cc2cc(C(F)(F)F)c(OCc3ccon3)cc2[nH]1)N1CCC1 [Compound 477, N-((6-(isoxazol-3-ylmethoxy)-5-(trifluoromethyl)-1H-indol-2-yl)methyl)azetidine-1-carboxamide]	383 nM
Cc1cc(COc2cc3[nH]c(CNC(=O)NC4CC4)cc3cc2Cl)on1 [Compound 636, 1-((5-chloro-6-((3-methylisoxazol-5-yl)methoxy)-1H-indol-2-yl)methyl)-3-cyclopropylurea]	164 nM
CC1(C(=O)NCc2cc3cc(Cl)c(OCc4cscn4)cc3[nH]2)COC1 [Compound 277, N-((5-chloro-6-(thiazol-4-ylmethoxy)-1H-indol-2-yl)methyl)-3-methyloxetane-3-carboxamide]	279 nM
CC1CN(C(=O)NCc2cc3cc(Cl)c(OCc4cscn4)cc3[nH]2)C1 [Compound 80, N-((5-chloro-6-(thiazol-4-ylmethoxy)-1H-indol-2-yl)methyl)-3-methylazetidine-1-carboxamide]	350 nM
C[C@H]1CCCN1C(=O)NCc1cc2cc(F)c(OCc3cscn3)cc2[nH]1 [Compound 385, (S)-N-((5-fluoro-6-(thiazol-4-ylmethoxy)-1H-indol-2-yl)methyl)-2-methylpyrrolidine-1-carboxamide]	549 nM
CCOCCOc1cc2[nH]c(CNC(C)=O)cc2cc1Cl [Compound 459, N-((5-chloro-6-(2-ethoxyethoxy)-1H-indol-2-yl)methyl)acetamide]	505 nM
CC1CCN(C(=O)NCc2cc3cc(F)c(OCc4ccon4)cc3[nH]2)C1 (centres unmarked) [Compound 91, N-((5-fluoro-6-(isoxazol-3-ylmethoxy)-1H-indol-2-yl)methyl)-3-methylpyrrolidine-1-carboxamide]	524 nM
CC(=O)NCc1cc2cc(Cl)c(OCCC3CCCO3)cc2[nH]1 (centres unmarked) [Compound 455, N-((5-chloro-6-(2-(tetrahydrofuran-2-yl)ethoxy)-1H-indol-2-yl)methyl)acetamide]	3530 nM
Cc1cnc(COc2cc3[nH]c(CNC(=O)C4(C)CC4)cc3cc2F)o1 [Compound 73, N-((5-fluoro-6-((5-methyloxazol-2-yl)methoxy)-1H-indol-2-yl)methyl)-1-methylcyclopropane-1-carboxamide]	1470 nM
Cc1cc(COc2cc3[nH]c(CNC(=O)[C@H](C)CO)cc3cc2Cl)on1 [Compound 536, (R)-N-((5-chloro-6-((3-methylisoxazol-5-yl)methoxy)-1H-indol-2-yl)methyl)-3-hydroxy-2-methylpropanamide]	1360 nM
C[C@@H]1CCN(C(=O)NCc2cc3cc(F)c(OCc4ccon4)cc3[nH]2)C1 [Compound 381, (R)-N-((5-fluoro-6-(isoxazol-3-ylmethoxy)-1H-indol-2-yl)methyl)-3-methylpyrrolidine-1-carboxamide]	339 nM
O=C(NCc1cc2cc(C(F)(F)F)c(OCc3ccon3)cc2[nH]1)N1CCCC1 [Compound 476, N-((6-(isoxazol-3-ylmethoxy)-5-(trifluoromethyl)-1H-indol-2-yl)methyl)pyrrolidine-1-carboxamide]	408 nM
Cc1cc(COc2cc3[nH]c(CNC(=O)C4(C)CC4)cc3cc2Cl)sn1 [Compound 398, N-((5-chloro-6-((3-methylisothiazol-5-yl)methoxy)-1H-indol-2-yl)methyl)-1-methylcyclopropane-1-carboxamide]	599 nM
Cc1cc(COc2cc(F)c3cc(CNC(=O)N4CCC4)[nH]c3c2)on1 [Compound 427, N-((4-fluoro-6-((3-methylisoxazol-5-yl)methoxy)-1H-indol-2-yl)methyl)azetidine-1-carboxamide]	634 nM
CC1(C(=O)NCc2cc3cc(-c4ccon4)c(OCc4cscn4)cc3[nH]2)CC1 [Compound 659, N-((5-(isoxazol-3-yl)-6-(thiazol-4-ylmethoxy)-1H-indol-2-yl)methyl)-1-methylcyclopropane-1-carboxamide]	1970 nM
Cc1cc(CC(C)c2ccc3cc(CNC(=O)C4(C)CC4)[nH]c3c2)no1 (centres unmarked) [Compound 153, 1-methyl-N-((6-(1-(5-methylisoxazol-3-yl)propan-2-yl)-1H-indol-2-yl)methyl) cyclopropane-1-carboxamide]	1960 nM
CC1(C(=O)NCc2cc3cc(OC(F)(F)F)c(CCc4cocn4)cc3[nH]2)CC1 [Compound 514, 1-methyl-N-((6-(2-(oxazol-4-yl)ethyl)-5-(trifluoromethoxy)-1H-indol-2-yl)methyl)cyclopropane-1-carboxamide]	408 nM
Cc1cc(COc2cc3[nH]c(CNC(=O)C(C)C#N)cc3cc2Cl)on1 (single isomer, unassigned) [Compound 447, (S or R)-N-((5-chloro-6-((3-methylisoxazol-5-yl)methoxy)-1H-indol-2-yl)methyl)-2-cyanopropanamide]	208 nM
O=C(NCc1cc2cc(Cl)c(CCc3ccon3)cc2[nH]1)N1CCC1 [Compound 595, N-((5-chloro-6-(2-(isoxazol-3-yl)ethyl)-1H-indol-2-yl)methyl)azetidine-1-carboxamide]	240 nM
[2H]C([2H])([2H])C(=O)NCc1cc2cc(Cl)c(OCc3cscn3)cc2[nH]1 [Compound 570, N-((5-chloro-6-(thiazol-4-ylmethoxy)-1H-indol-2-yl)methyl)acetamide-2,2,2-d3]	80.4 nM
Cc1cc(COc2cc3[nH]c(CNC(=O)N4CCC(F)C4)cc3cc2Cl)on1 (racemic) [Compound 373, (R)-N-((5-chloro-6-((3-methylisoxazol-5-yl)methoxy)-1H-indol-2-yl)methyl)-3-fluoropyrrolidine-1-carboxamide and (S)-N-((5-chloro-6-((3-methylisoxazol-5-yl)methoxy)-1H-indol-2-yl)methyl)-3-fluoropyrrolidine-1-carboxamide]	472 nM
C[C@@H](O)C(=O)NCc1cc2cc(Cl)c(OCc3cscn3)cc2[nH]1 [Compound 257, (R)-N-((5-chloro-6-(thiazol-4-ylmethoxy)-1H-indol-2-yl)methyl)-2-hydroxypropanamide]	756 nM
O=C(NCc1cc2cc(OC(F)(F)F)c(OCc3ccon3)cc2[nH]1)N1CCC1 [Compound 416, N-((6-(isoxazol-3-ylmethoxy)-5-(trifluoromethoxy)-1H-indol-2-yl)methyl)azetidine-1-carboxamide]	379 nM
CO[C@@H](C)C(=O)NCc1cc2cc(Cl)c(OCc3cscn3)cc2[nH]1 [Compound 291, (S)-N-((5-chloro-6-(thiazol-4-ylmethoxy)-1H-indol-2-yl)methyl)-2-methoxypropanamide]	197 nM
O=C(NCc1cc2cc(OC(F)(F)F)c(CCc3cocn3)cc2[nH]1)N1CCC1 [Compound 467, N-((6-(2-(oxazol-4-yl)ethyl)-5-(trifluoromethoxy)-1H-indol-2-yl)methyl)azetidine-1-carboxamide]	145 nM
